Measurements published in ChEMBL document CHEMBL3868595, “Plazomicin is effective in a non-human primate pneumonic plague model” (Bioorg Med Chem, 2016).

Legend:
[1] = system: African green monkey; assay: Toxicity in African green monkey 8067 model infected with Yersinia pestis Colorado 92 assessed as serum alanine aminotransferase level at 25 mg/kg, iv administered within 6 hrs post onset of sustained fever as 30 mins infusion for 10 days (reference value: 45 IU/L); format: organism-based; settings: chlorocebus sabaeus, in vivo
[2] = AUC (0 to 24 hrs) in African green monkey blood at 25 mg/kg administered as iv infusion twice daily for 7 consecutive days measured on day 1 by LC-MS/MS analysis; format: ADME, organism-based; parameters: dose 25 mg/kg, time < 24 hr, route intravenous; settings: chlorocebus aethiops
[3] = system: Yersinia pestis; assay: Antibacterial activity against Yersinia pestis Colorado 92 infected in African green monkey B6127 model assessed as bacterial burden in blood at 25 mg/kg, iv administered within 6 hrs post onset of sustained fever as 30 mins infusion for 10 days (reference value: 1.2 10^7CFU/ml); format: functional, organism-based; settings: CO92
[4] = Clearance in African green monkey blood at 35 mg/kg administered as iv infusion twice daily for 7 consecutive days measured on day 7 by LC-MS/MS analysis; format: ADME, organism-based; settings: chlorocebus aethiops
[5] = system: African green monkey; assay: Toxicity in African green monkey B5994 model infected with Yersinia pestis Colorado 92 assessed as serum creatinine level at 25 mg/kg, iv administered within 6 hrs post onset of sustained fever as 30 mins infusion for 10 days (reference value: 0.6 mg/dl); format: organism-based; settings: chlorocebus sabaeus, in vivo
[6] = Elimination half life in African green monkey blood at 25 mg/kg administered as iv infusion twice daily for 7 consecutive days measured on day 7 by LC-MS/MS analysis; format: ADME, organism-based; settings: chlorocebus aethiops, read-out: beta t1/2 (converted)
[7] = system: Yersinia pestis; assay: Antibacterial activity against Yersinia pestis Colorado 92 infected in African green monkey 8047 model assessed as bacterial burden in lung at 6.25 mg/kg, iv administered within 6 hrs post onset of sustained fever as 30 mins infusion for 10 days (reference value: 7.7 10^8CFU/g); format: functional, CO92
[8] = system: Yersinia pestis; assay: Antibacterial activity against Yersinia pestis Colorado 92 infected in African green monkey C2083 model assessed as bacterial burden in liver at 12.5 mg/kg, iv administered within 6 hrs post onset of sustained fever as 30 mins infusion for 5 days (reference value: 5.2 10^8CFU/g); format: functional, CO92
[9] = system: Yersinia pestis; assay: Antibacterial activity against Yersinia pestis Colorado 92 infected in African green monkey assessed as survival of monkey at 12.5 mg/kg, iv administered within 6 hrs post onset of sustained fever as 30 mins infusion for 5 days; format: functional; settings: CO92, iv
[10] = system: Yersinia pestis; assay: Antibacterial activity against Yersinia pestis Colorado 92 infected in African green monkey 8047 model assessed as bacterial burden in liver at 6.25 mg/kg, iv administered within 6 hrs post onset of sustained fever as 30 mins infusion for 10 days (reference value: 5.2 10^8CFU/g); format: functional, CO92
[11] = Elimination half life in African green monkey blood at 35 mg/kg administered as iv infusion twice daily for 7 consecutive days measured on day 7 by LC-MS/MS analysis; format: ADME, organism-based; settings: chlorocebus aethiops, read-out: beta t1/2 (converted)
[12] = system: African green monkey; assay: Toxicity in African green monkey B6428 model infected with Yersinia pestis Colorado 92 assessed as blood urea nitrogen level at 25 mg/kg, iv administered within 6 hrs post onset of sustained fever as 30 mins infusion for 10 days (reference value: 16 mg/dl); format: organism-based; settings: chlorocebus sabaeus, in vivo
[13] = system: Yersinia pestis; assay: Antibacterial activity against Yersinia pestis Colorado 92 infected in African green monkey B6889 model assessed as bacterial burden in blood at 6.25 mg/kg, iv administered within 6 hrs post onset of sustained fever as 30 mins infusion for 5 days (reference value: 1.2 10^7CFU/ml); format: functional, CO92
[14] = system: African green monkey; assay: Toxicity in African green monkey 7643 model infected with Yersinia pestis Colorado 92 assessed as serum alanine aminotransferase level at 25 mg/kg, iv administered within 6 hrs post onset of sustained fever as 30 mins infusion for 10 days (reference value: 53 IU/L); format: organism-based; settings: chlorocebus sabaeus, in vivo
[15] = Volume of distribution at steady state in African green monkey blood at 25 mg/kg administered as iv infusion twice daily for 7 consecutive days measured on day 7 by LC-MS/MS analysis; format: ADME, organism-based; settings: chlorocebus aethiops, read-out: Vdss
[16] = system: Yersinia pestis; assay: Antibacterial activity against Yersinia pestis Colorado 92 infected in African green monkey B6672 model assessed as bacterial burden in heart at 12.5 mg/kg, iv administered within 6 hrs post onset of sustained fever as 30 mins infusion for 5 days (reference value: 2.6 10^7CFU/g); format: functional, CO92
[17] = system: Yersinia pestis; assay: Antibacterial activity against Yersinia pestis Colorado 92 infected in African green monkey B6783 model assessed as bacterial burden in liver at 12.5 mg/kg, iv administered within 6 hrs post onset of sustained fever as 30 mins infusion for 5 days (reference value: 5.2 10^8CFU/g); format: functional, CO92
[18] = system: African green monkey; assay: Toxicity in African green monkey B6408 model infected with Yersinia pestis Colorado 92 assessed as serum gamma glutamyl-transferase level at 25 mg/kg, iv administered within 6 hrs post onset of sustained fever as 30 mins infusion for 10 days (reference value: 53 IU/L); format: organism-based; settings: chlorocebus sabaeus, in vivo

CN[C@@H]1[C@@H](O)[C@@H](O[C@@H]2[C@@H](O)[C@H](O[C@H]3OC(CNCCO)=CC[C@H]3N)[C@@H](N)C[C@H]2NC(=O)[C@@H](O)CCN)OC[C@]1(C)O [PLAZOMICIN]
Activity [1]: 50 IU/L
AUC(0-t) at 24 h [2]: 185 µg·h/mL
Activity [3]: Below limit of detection
clearance [4]: 1.67 mL/min/kg
Activity [5]: 0.5 mg/dL
half-life [6]: 1.8 h
Activity [7]: 6.6 ×10⁹ CFU/g
Activity [8]: 4.5 ×10⁹ CFU/g
survival at 12.5 mg/kg [9]: 33%
Activity [10]: 1.3 ×10⁶ CFU/g
half-life [11]: 1.7 h
Activity [12]: 26 mg/dL
Activity [13]: 93 CFU/ml
Activity [14]: 43 IU/L
Vd [15]: 0.36 L/kg
Activity [16]: 29 CFU/g
Activity [17]: 8.4 ×10⁶ CFU/g
Activity [18]: 56 IU/L
